For 62 molecules, AC50, CC50 and EC50 results are on record in ChEMBL document CHEMBL1201862, “PubChem BioAssay data set” (2004).

The target of experiment [1] is Cytochrome P450 2D6 (Homo sapiens, UniProt P10635).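 Also: CYP2D6 member of a cytochrome P450 panel assay.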
Experiment [2] has as its target Cytochrome P450 3A4 (Homo sapiens, UniProt P08684).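 Also: CYP3A4 tested as one member of a cytochrome P450 panel screen.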
Experiment [3] has as its target Cytochrome P450 2C9 (Homo sapiens, UniProt P11712).
A short description of experiment [4]: HEp-2 cell cytotoxicity, dose response, cytotoxicity control for RSV inhibitor project, HTS (AID 2410). The experiment is classed as functional. The settings on record: human respiratory syncytial virus.
Experiment [5] can be described thus: inhibitors of intracellular T. cruzi replication, confirmation, NIH3T3 host cells, beta-gal luminescence (AID 2044).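 Also: intracellular parasites grown in NIH/3T3 mouse fibroblasts as host cells; luminescent beta-galactosidase reporter signal from transgenic T. cruzi replicating inside host cells; inhibitors lower the luminescence signal.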 The experiment is classed as functional, cell-based.
Experiment [6] can be described thus: cytotoxicity toward NIH3T3 fibroblasts, dose response, counter-screen, cell-based, ATP luminescence, mouse fibroblasts (AID 2010).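 Also: cells exposed to compound for about 90 hours before reading.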 The experiment is classed as functional.
The test system of experiment [7] is Streptococcus sp. 'group A'. The experiment is described as follows: growth inhibition of control SK(-) GAS strain, dose response, counter-screen for streptokinase expression inhibitor project, luminescence, kanamycin, BacTiterGlo, confirmation (AID 1900). The experiment is classed as functional, organism-based.
Experiment [8] concerns Streptococcus. The experiment is described as follows: Group A Streptococcus viability loss, dose response, counter-screen for streptokinase expression inhibitor project, luminescence, BacTiterGlo (AID 1915).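 Also: potency for reduction of bacterial viability or growth.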 The experiment is classed as functional, organism-based. (Counterscreens check selectivity or assay interference.)

Each structure is given as a SMILES string. Calls of active or inactive are those of the source.

Chain of Cytochrome P450 2C9 (P11712 whole entry): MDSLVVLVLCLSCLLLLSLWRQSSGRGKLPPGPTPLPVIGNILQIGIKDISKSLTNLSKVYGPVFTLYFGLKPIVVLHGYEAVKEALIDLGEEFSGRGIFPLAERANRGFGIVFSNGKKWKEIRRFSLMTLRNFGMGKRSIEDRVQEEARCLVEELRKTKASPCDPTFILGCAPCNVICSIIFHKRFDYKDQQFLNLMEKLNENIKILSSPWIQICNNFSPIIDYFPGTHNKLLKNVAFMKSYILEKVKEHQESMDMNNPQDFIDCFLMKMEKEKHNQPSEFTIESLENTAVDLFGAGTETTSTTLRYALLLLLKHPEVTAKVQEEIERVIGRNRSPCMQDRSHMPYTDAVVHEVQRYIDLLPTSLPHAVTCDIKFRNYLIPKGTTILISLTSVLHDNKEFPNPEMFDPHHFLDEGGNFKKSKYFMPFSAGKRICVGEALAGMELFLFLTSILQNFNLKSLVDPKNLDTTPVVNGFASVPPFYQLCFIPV
Chain of Cytochrome P450 2D6 (P10635 whole entry): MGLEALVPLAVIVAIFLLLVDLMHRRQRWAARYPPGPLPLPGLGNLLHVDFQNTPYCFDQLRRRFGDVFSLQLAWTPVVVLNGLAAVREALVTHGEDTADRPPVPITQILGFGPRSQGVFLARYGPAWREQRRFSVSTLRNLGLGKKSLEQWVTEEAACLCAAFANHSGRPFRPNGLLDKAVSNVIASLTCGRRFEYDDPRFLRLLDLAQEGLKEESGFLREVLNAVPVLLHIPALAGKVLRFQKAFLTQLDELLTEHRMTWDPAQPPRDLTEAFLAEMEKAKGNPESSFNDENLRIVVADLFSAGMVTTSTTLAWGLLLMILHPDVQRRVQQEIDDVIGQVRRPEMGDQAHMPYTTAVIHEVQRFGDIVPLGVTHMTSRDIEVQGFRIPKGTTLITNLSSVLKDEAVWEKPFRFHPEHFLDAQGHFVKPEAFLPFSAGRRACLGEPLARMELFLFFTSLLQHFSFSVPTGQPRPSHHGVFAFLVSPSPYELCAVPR
Chain of Cytochrome P450 3A4 (P08684 whole entry): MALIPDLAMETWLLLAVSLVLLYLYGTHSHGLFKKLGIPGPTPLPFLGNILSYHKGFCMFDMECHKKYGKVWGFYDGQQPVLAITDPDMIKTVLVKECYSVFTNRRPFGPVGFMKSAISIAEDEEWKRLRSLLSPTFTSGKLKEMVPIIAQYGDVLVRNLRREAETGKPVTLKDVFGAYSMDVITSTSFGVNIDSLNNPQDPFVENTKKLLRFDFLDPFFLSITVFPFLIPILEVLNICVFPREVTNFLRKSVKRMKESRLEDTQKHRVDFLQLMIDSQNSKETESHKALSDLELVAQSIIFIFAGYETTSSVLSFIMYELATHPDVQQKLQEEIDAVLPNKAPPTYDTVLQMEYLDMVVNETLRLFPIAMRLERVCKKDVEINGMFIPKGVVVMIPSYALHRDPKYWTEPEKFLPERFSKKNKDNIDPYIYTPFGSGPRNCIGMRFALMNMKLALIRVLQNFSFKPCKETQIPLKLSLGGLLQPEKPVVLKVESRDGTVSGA

For orientation: AC50 means the midpoint of the concentration-response curve, whichever way the signal moves. Take `Cc1ccc(/C=C/C2=Cc3c(sc(NC(=O)CSc4nnc(N)[nH]4)c3C#N)C(C)(C)C2)o1`: the AC50 in experiment [1] was 22.4 µM (inconclusive).
For the molecule `COC(=O)CC[C@@H](C)[C@H]1CC[C@H]2[C@H]3CC[C@H]4C[C@@H]5CC[C@@]4(C)C3(O5)[C@@H](Br)[C@@H](Br)[C@@]12C`, the half-maximal activity concentration (AC50) in experiment [2] is 3.98 µM (inconclusive).
For `C[C@@H]1CC[C@H]2C(=O)NC[C@@H](O)CN2[C@@H]1c1ccc(Br)cc1`, the results for the AC50 in experiment [1], in experiment [2] and in experiment [3] were 3.16 µM (inconclusive), 3.98 µM (inconclusive) and 5.01 µM (inconclusive), respectively.
On to `CCC(=O)NC(=S)N1CCN(c2ccc([N+](=O)[O-])cc2Cl)CC1`, for which, in experiment [2], the concentration at half-maximal activity (AC50) was 28.2 µM (inconclusive).
For the molecule `Cc1cc(NC(=S)Nc2ccccc2)ccc1Br`, the concentration at half-maximal activity (AC50) in experiment [3] was 11.2 µM (inconclusive).
In general, CC50 refers to the concentration giving 50% cytotoxicity. Take `Cc1ccc(NC2=NC(=O)CS2)cc1`: the CC50 in experiment [4] was 34.3 µM (active).
Consider `Cc1sc2ccccc2c1CC1=NCCN1` [METIZOLINE], for which the concentration at half-maximal activity (AC50) in experiment [1] is 31.6 µM (inconclusive).
Turning to `Cn1c(=O)c(-c2ccc(F)cc2)nc2cncnc21`, the AC50 in experiment [2] was 7.94 µM (inconclusive).
Turning to `CC1CCc2sc3nc(NCc4ccco4)n4ncnc4c3c2C1` (configuration not stated), the 50% cytotoxic concentration (CC50) in experiment [4] is 30.3 µM (active).
What is called EC50 is the concentration giving half of the maximal effect. As to `COCc1ccc(CN2CCCC(CCC(=O)NCc3cccc(OC)c3)C2)o1` (configuration not stated), the 50% effective concentration (EC50) in experiment [5] was 0.914 µM (active); in experiment [6] it was > 60 µM (not active).
`CCOC(=O)C1=C2SCC(=O)N2C(N)=C(C#N)C1`: the AC50 in experiment [1] was 11.2 µM (inconclusive); in experiment [3] it was 20 µM (inconclusive).
As to `CC(C)(C)c1ccc(C(=O)N2CCC(C(=O)NC3CCCCCC3)CC2)cc1`, in experiment [4], the CC50 is 42 µM (active).
Take `CC1CCc2nc(NC(=O)c3ccc(S(=O)(=O)N4CCCc5ccccc54)cc3)sc2C1` (configuration not stated): the results for the 50% effective concentration (EC50) in experiment [5] and in experiment [6] were 1.42 µM (active) and > 60 µM (not active), respectively.
Consider `Cc1nc(N)sc1-c1csc(Nc2cccc(O)c2)n1`, for which the CC50 in experiment [4] was 48.4 µM (active).
On to `O=C1CC(N2CCN(CCc3ccccn3)CC2)C(=O)N1c1ccc(Cl)cc1` (configuration not stated), for which the AC50 in experiment [1] is 12.6 µM (inconclusive).
For the molecule `COc1cc(/C=C(/C#N)c2nc3ccccc3[nH]2)ccc1Oc1ncccc1[N+](=O)[O-]`, the AC50 in experiment [1] is 3.16 µM (inconclusive).
For `O=C(Cc1sc(Nc2ccccc2)nc1-c1ccccc1)NCc1ccccc1`, in experiment [4], the CC50 was 11.2 µM (active).
In the case of `CCCC[C@@H]1C[C@H]1C(NC(=O)c1cccnc1)c1ccc(-c2ccccc2)cc1` (some centres not stated), the concentration at half-maximal activity (AC50) in experiment [2] was 0.794 µM (inconclusive).
Consider `O=C(NCc1cccnc1)c1c(O)c2cccc3c2n(c1=O)CCC3`, for which the CC50 in experiment [4] was 22.8 µM (active).
Same read-out and setting: then `O=C1Nc2ccccc2CCC1Sc1nnc(-c2ccc(Cl)cc2)s1` (configuration not stated), with 3.7 µM (active).
Consider `Cn1nc([N+](=O)[O-])nc1Oc1ccccc1N`, for which the EC50 in experiment [5] was 1.08 µM (active); in experiment [6] it was > 60 µM (not active).
For `CC(C)N1CCN(Cc2ccc(-c3ccccc3Cl)o2)CC1CCO` (configuration not stated) the same measures were 1.61 µM (active) and > 60 µM (inconclusive).
With `Clc1ccccc1CSc1cc2c(nn1)-c1ccccc1CC2`, in experiment [4], the 50% cytotoxic concentration (CC50) was 22.9 µM (active).
On the same count and under the same terms, then `Cc1ccc2occ(/C=N/NC(N)=S)c(=O)c2c1`, with > 50 µM (active).
For `COc1ccc(CCN(C)CC(=O)Nc2c(C)cc(C)cc2C)cc1OC`, the EC50 was 0.592 µM (active) in experiment [5] and > 60 µM (not active) in experiment [6].
Turning to `O=C(NCCN1CCN(C(=O)C(c2ccccc2)c2ccccc2)CC1)C(=O)Nc1ccccc1`, the AC50 in experiment [3] is 12.6 µM (inconclusive).
For `FC(F)(F)c1ccccc1-c1nccc(NCc2ccccc2)n1`, the AC50 in experiment [1] was 25.1 µM (inconclusive); in experiment [2] it was 31.6 µM (inconclusive); in experiment [3] it was 1 µM (inconclusive).
As for `C[C@H]1[C@H](C)CC[C@]2(C(=O)O)CC[C@]3(C)C(=CC[C@@H]4[C@@]5(C)CC[C@H](O)C(C)(C)[C@@H]5CC[C@]43C)[C@H]12` [URSOLIC ACID], in experiment [4], the CC50 was 28.4 µM (active). For the same molecule, the EC50 in experiment [7] is 0.949 µM (active); in experiment [8], 0.88 µM (active).
`Cc1ccc(-n2c(SCc3ccc([N+](=O)[O-])cc3)nc3ccccc3c2=O)cc1`: the values for the AC50 in experiment [2] and in experiment [3] were 11.2 µM (inconclusive) and 0.0891 µM (inconclusive), respectively.
For the molecule `Cc1nc(N2CCOCC2)nc(N2CCN(c3ccccc3)CC2)c1[N+](=O)[O-]`, in experiment [2], the AC50 was 3.55 µM (inconclusive).
As for `O=C(Oc1ccccc1)N1CCC2(CCCN(c3ccccn3)C2)CC1`, the AC50 in experiment [1] was 39.8 µM (inconclusive); in experiment [3], 5.01 µM (inconclusive).
Turning to `CCCS(=O)(=O)N1CCN(Cc2ccc3c(c2)c2ccccc2n3CC)CC1`, the CC50 in experiment [4] was 20.4 µM (active).
As to `COCCn1c(=O)c(-c2ccc(F)cc2)nc2cncnc21`, the half-maximal activity concentration (AC50) in experiment [2] was 12.6 µM (inconclusive).
For the molecule `O=C(c1cccs1)n1nc(-c2ccc(Cl)cc2)nc1NCc1ccco1`, the AC50 in experiment [3] was 12.6 µM (inconclusive).
As for `NC(=O)C1CCN(C(=O)C(=O)c2cn(CC(=O)N3CCCCCC3)c3ccccc23)CC1`, the EC50 is 1.32 µM (active) in experiment [5] and > 60 µM (not active) in experiment [6].
On to `COc1ccc2nc(O)c(CNc3cccc(C)c3)cc2c1`, for which the CC50 in experiment [4] was 6.97 µM (active).
For `COc1cccc(CNC(=O)C2CCN(S(=O)(=O)N3CCCCC3)CC2)c1`, in experiment [3], the AC50 is 11.2 µM (inconclusive).
For the molecule `c1ccc2c(N3CCOCC3)nc(-c3ccncc3)nc2c1`, the CC50 in experiment [4] was 42.6 µM (active).
On to `CCCN(CC#CC(O)(c1ccccc1)c1cccnc1)CCC` (configuration not stated), for which the concentration for a half-maximal effect (EC50) was 0.463 µM (active) in experiment [5] and > 60 µM (not active) in experiment [6].
For `Cc1ccc(S(=O)(=O)N2CCC(=O)N(C(COCc3ccc(Cl)cc3Cl)Cc3ccccc3)CC2)cc1` (configuration not stated) the same measures were 1.58 µM (active) and 34.1 µM (active).
Turning to `c1ccc(Nc2nc(-c3ccccc3)nc3ccccc23)cc1`, the cytotoxic concentration (CC50) in experiment [4] was 24.8 µM (active).
On the same count and under the same terms, then `O=C(/C=C/c1cccc([N+](=O)[O-])c1)NCCSCc1ccccc1Cl`, with 25.4 µM (active).
In the case of `COc1ccccc1CNc1ncnc2ccc(-c3ccccc3C#N)cc12`, the AC50 in experiment [1] is 3.16 µM (inconclusive); in experiment [3] it was 0.631 µM (inconclusive).
As for `Cc1ccc2ccc(S(=O)(=O)NCc3ccco3)cc2c1`, in experiment [4], the 50% cytotoxic concentration (CC50) is 29.2 µM (active).
`CC(C)NC(=O)c1sc2nc3c(c(-c4cccs4)c2c1N)CN(C)CC3`: the 50% effective concentration (EC50) was 0.856 µM (active) in experiment [5] and > 60 µM (inconclusive) in experiment [6].
For `COc1ccc(C(=O)C2CCCN(Cc3cnc(N4CCCC4)s3)C2)cc1OC` (configuration not stated), the 50% effective concentration (EC50) in experiment [5] was 0.26 µM (active); in experiment [6] it was > 30 µM (not active).
Regarding `CO[C@H]1COC(=O)C/C=C\[C@@H](C)COC(=O)[C@@H](OCc2ccccc2)/C=C\[C@@H]1C`, the concentration at half-maximal activity (AC50) in experiment [2] was 3.98 µM (inconclusive).
With `CCOC(=O)c1oc2ccc(CNC3CCCCC3)c(Cl)c2c1C`, the half-maximal effective concentration (EC50) in experiment [5] was 1.73 µM (active); in experiment [6] it was > 60 µM (not active).
As for `CCOC(=O)c1cc2sc(C)cc2n1CCCN1C(=O)c2ccccc2C1=O`, the AC50 in experiment [1] was 15.8 µM (inconclusive).
Turning to `Cc1ccc([N+](=O)[O-])cc1/N=C(/c1cccc([N+](=O)[O-])c1)N1CCOCC1`, the results for the AC50 in experiment [2] and in experiment [3] were 20 µM (inconclusive) and 25.1 µM (inconclusive), respectively.
For the molecule `O=c1cnc2cnc(N3CCOCC3)nc2n1CCc1ccccc1`, the AC50 in experiment [2] is 15.8 µM (inconclusive).
In the case of `O=C(c1ccc(Cl)cc1)N1CCN(c2ccc([N+](=O)[O-])c(NCc3cccnc3)c2)CC1`, the CC50 in experiment [4] is 35.8 µM (active).
On to `Cc1ccc(CN(Cc2cccnc2)C(S)=Nc2cc(Cl)ccc2C)cc1`, for which the EC50 in experiment [5] was 1.61 µM (active); in experiment [6], > 60 µM (not active).
For `CC(=O)N1CCC2(CCCN(c3cccc(-c4ccccc4)c3)C2)CC1`, the AC50 in experiment [1] is 39.8 µM (inconclusive); in experiment [2], 7.94 µM (inconclusive).
Consider `S[C@@H]1CCCN(Cc2ccccc2)C1`, for which, in experiment [2], the concentration at half-maximal activity (AC50) is 3.98 µM (inconclusive).
For the molecule `c1cncc(-c2ccc3ncnc(NCCN4CCOCC4)c3c2)c1`, the concentration at half-maximal activity (AC50) in experiment [1] is 39.8 µM (inconclusive).
`Cc1ccc(NC(=O)CC2CS(=O)(=O)CC2CC(=O)Nc2ccc(C)c(C)c2)cc1C` (configuration not stated): the AC50 in experiment [3] was 2.82 µM (inconclusive).
As for `COc1ccc(CCNc2cc(C)nc3c(-c4ccccc4)cnn23)cc1OC`, the CC50 in experiment [4] was 43.2 µM (active).
Still for that read-out and setting: then `CCC(C)c1ccc(NC(=O)c2cccs2)cc1` (configuration not stated), with < 0.1 µM (active).
Take `CO[C@@H]1/C=C\O[C@@]2(C)Oc3c(C)c(O)c4c(c3C2=O)/C(=N/[C@H]2CC[C@H](O)O[C@@H]2C)C=C(NC(=O)/C(C)=C\C(=O)[C@@H]2C[C@@H]2[C@@H](O)[C@H](C)[C@@H](O)[C@H](C)[C@H](OC(C)=O)[C@@H]1C)C4=O`: the half-maximal activity concentration (AC50) in experiment [1] is 3.16 µM (inconclusive); in experiment [3], 3.98 µM (inconclusive).
`CCCCOC(=O)c1ccc(O)cc1` [BUTYLPARABEN]: the AC50 in experiment [1] was 12.6 µM (inconclusive).
With `Cc1cc(C)c(C#N)c(OCC(=O)c2ccc(Br)cc2)n1`, the AC50 in experiment [2] is 3.55 µM (inconclusive).
